Test results: publication PMC5712521, “Dendrogenin A drives LXR to trigger lethal autophagy in cancers” (Nature Communications, 2017)

How the values were obtained:
B16F10 cells = experiment: DDA-induced cytotoxicity (cell death); type: cell-based; details: for cell death: B16F10, 5 µM 22(R)HC, 0.5 µM TO, 1 µM GW
Protocol: (§1) Melanoma cells were seeded into 6-well plates at 60,000 cells per well and AML cells at 250,000 cells/ml. The cells were then treated with control solvent vehicle (1/1000 ethanol in water) or DDA. Where indicated, treated cells were incubated in the presence or absence of each inhibitor for time shown. Cell death was determined by the trypan blue exclusion assay. Cells were scraped and resuspended in trypan blue solution (0.25% (w/v) in PBS) and counted in a Malassez cell under light microscopy. Cell viability was then quantified by counting viable (trypan blue-negative) and dead cells (trypan blue-positive).
(§2) Supplementary Fig. 1. a DDA inhibited m elanom a colony form ation. Melanom a cells were […]
(§3) a 0.5% solution of crystal violet in water and analyzed by microscopy. Images are representative of 5 independent experiments. b Evaluation of DDA-induced cytotoxicity (cytotox) and clonogenicity (clono) inhibition in a subset of human (H) and mouse (M) m elanom a cell lines. T he BRaf status in m elanom a cells lines is shown. […]

SKMEL-28 cells [1] = experiment: DDA-induced cytotoxicity (cell death); type: cell-based; details: for cell death: SKMEL-28, 5 µM 22(R)HC, 0.5 µM TO, 1 µM GW
Protocol: as §1, §2, §3

SKMEL-28 cells [2] = experiment: Immunoblot densitometry (LC3-II); type: cell-based, human; details: 2.5 µM DDA; for LC3-II protein, densitometry relative to control: SKMEL-28, 24 h, 10 µM 22(R)HC, 100 nM TO; for LC3-II protein, densitometry relative to untreated / LC3-II protein, densitometry: 24 h
Protocol: (§4) Immunoblotting was carried out as described previously. Proteins were separated on SDS-PAGE gels, electro-transferred onto polyvinylidene difluoride membranes and incubated overnight at 4 °C with the following antibodies: anti-Atg3, anti-Atg5 (D1G9), anti-Atg7 (D12B11), anti-Beclin (D40C5), anti-caspase-3 (Cell Signaling), anti-Bcl-2 (Millipore), anti-Bax (Millipore), anti-LC3 (Sigma-Aldrich), anti-LXRα (SantaCruz), anti-LXRβ (SantaCruz), anti-Nur77 (Active motif), anti-NOR1 (R&D systems), anti-PARP (Cell Signaling), anti-Vps34 (Cell Signaling), or anti-Actin (Millipore). For visualization, an ECL plus kit (Amersham Biosciences) was used, and chemiluminescence was measured by autoradiography (Supplementary Fig. 9). Specific bands were quantified with ImageQuant software.

KG1 cells = experiment: Immunoblot densitometry; type: cell-based, human; details: 5 µM DDA; for LC3-II protein, densitometry relative to control: KG1, 24 h, 2 µM TO, 2 µM GW, 10 µM 22(R)HC
Protocol: as §4
Supplementary Fig. 6. […]
D ata from b, f, g, h, j, p, q ar e the m eans ± S.E.M. of 3 independent experiments performed in triplicate (*P<0.05, **P<0.01, ***P<0.001, t test). Images are representative of 3 independent experim ents.
Supplementary Fig. 7. a Im munoblots of Nur77 and NOR1 proteins in cells treated or not for 24 h with 5 µM DDA. b Real-time PCR of Nur77 and NOR1 expression in KG1 cells stably transfected with control shRNA (clone shCTRL) or with shRNA against LXRβ (clones sh3LXRβ and sh4LXRβ) and treated with 10 µM DDA for 24 h. c Immunoblots of Nur77 and NOR1 protein expression in KG1 cells stably transfected with control shRNA (clone shCTRL), shRNA against Nur77 (shNur77), shRNA against NOR1 (shNOR1), or shRNAs against both Nur77 and NOR1 (shNur77 + shNOR1). d NOD/SCID mice
(n=16- 20 mice/group) engrafted with KG1 cells or HL60 cells were treated with DDA (20 mg/kg/day, i.p.) or solvent vehicle (control). Tumor growth was monitored over time and was analyzed for significance using repeated measures ANOVA (***P<0.001). The mean tumor volumes ± SEM are shown. e Average tumor weight at the end of the experiments in d. *P<0.5, **P<0.01, ANOVA. f Mean tumor volumes measured at the end of the experiments for HL60 and KG1 graf ted into NOD/SCID or NMRI-Fo x1 -nude mice treated with DDA (40 mg/kg/day, p.o. or 20 mg/kg/day, i.p.) or solvent vehicle (control) (n=10- 20 mice per group). Values represent the means ± S.E.M. (**P<0.01, ***P<0.001, ANOVA). g Histochemical analysis of the expression of LC3 and P62 in HL60 tumor sections isolated from NOD/SCID mice treated or not with DDA (20 mg/kg/day, i.p.). h Quantification of LC3 punctate cells in shCTRL and shLXRβ KG1 tumors. i Quantification of DDA levels in tumors 4 h after the final administration of DDA. j Box plot of TCGA RNA-seq data from patients with melanoma showing that LXRβ is the predominant LXR isoform expressed.
***P<0.001. k, l Immunoblotting of the indicated proteins in primary AML cells exposed to vehicle or 5 µM DDA for 24 h. m, n qPCR analysis of the expression of Nur77 and NOR1 in primary AML cells from 10 patients exposed to vehicle or DDA for 24 h. Bars represent S.E.M. (**P<0.01, ***P<0.001, t test). Data from b, h, i represent means ± S.E.M. of triplicate samples (>100 cell analyses per sample), **P<0.01, ***P<0.001, t test. All data or images are representative of 3 independent experiments.

CC(C)CCC[C@@H](C)[C@H]1CC[C@H]2[C@@H]3C[C@@H](NCCc4cnc[nH]4)[C@@]4(O)C[C@@H](O)CC[C@]4(C)[C@H]3CC[C@]12C [DDA, Dendrogenin A]
EC50 (B16F10 cells; Mus musculus, B16-F10, 72 h, read-out: Cytotox EC50): 700 ± 100 nM | EC50 (SKMEL-28 cells [1]; Homo sapiens, SK-MEL-28, SKMEL-28 (H), BRaf V600E, 72 h, read-out: Cytotox EC50): 2100 ± 200 nM | LC3-II protein, densitometry relative to control (SKMEL-28 cells [2]): 2.5 | LC3-II protein, densitometry relative to untreated (SKMEL-28 cells [2]; SKMEL-28 sh3LXRβ): 2.1 | LC3-II protein, densitometry relative to untreated (SKMEL-28 cells [2]; SKMEL-28 sh4LXRβ): 2.6 | LC3-II protein, densitometry relative to untreated (SKMEL-28 cells [2]; SKMEL-28 shCTRL): 5.5 | LC3-II protein, densitometry (SKMEL-28 cells [2]; SKMEL-28 siATG7): 1.1 | LC3-II protein, densitometry (SKMEL-28 cells [2]; SKMEL-28 siBECN1): 1.3 | LC3-II protein, densitometry (SKMEL-28 cells [2]; SKMEL-28 siNOR1 + siNur77): 3.2 | LC3-II protein, densitometry (SKMEL-28 cells [2]; SKMEL-28 siNOR1): 2.2 | LC3-II protein, densitometry (SKMEL-28 cells [2]; SKMEL-28 siNur77): 1.8 | LC3-II protein, densitometry (SKMEL-28 cells [2]; SKMEL-28 siVPS34): 1.2 | LC3-II protein, densitometry relative to control (KG1 cells): 8.3 | ATG3 protein, densitometry relative to vehicle (KG1 cells; KG1, 24 h): 2.1 | ATG5 protein, densitometry relative to vehicle (KG1 cells; KG1, 24 h): 0.9 | ATG7 protein, densitometry relative to vehicle (KG1 cells; KG1, 24 h): 1.2 | BECN1 protein, densitometry relative to vehicle (KG1 cells; KG1, 24 h): 0.9 | NOR1 protein, densitometry relative to untreated (KG1 cells; KG1, 24 h): 3.1 | Nur77 protein, densitometry relative to untreated (KG1 cells; KG1, 24 h): 3.4

O=C(O)Cc1cccc(OCCCN(Cc2cccc(C(F)(F)F)c2Cl)CC(c2ccccc2)c2ccccc2)c1 [GW, GW3965]
cell death (B16F10 cells): no impact on cell death | cell death (SKMEL-28 cells [1]): no impact on cell death | LC3-II protein, densitometry relative to control (KG1 cells): 0.8

O=S(=O)(c1ccccc1)N(CC(F)(F)F)c1ccc(C(O)(C(F)(F)F)C(F)(F)F)cc1 [TO, TO901317]
cell death (B16F10 cells): no impact on cell death | cell death (SKMEL-28 cells [1]): no impact on cell death | LC3-II protein, densitometry relative to control (SKMEL-28 cells [2]): 0.9 | LC3-II protein, densitometry relative to control (KG1 cells): 1.0

CC(C)CC[C@@H](O)[C@@H](C)[C@H]1CC[C@H]2[C@@H]3CC=C4C[C@@H](O)CC[C@]4(C)[C@H]3CC[C@]12C [22(R)HC, 22(R)-hydroxycholesterol]
cell death (B16F10 cells): no impact on cell death | cell death (SKMEL-28 cells [1]): no impact on cell death | LC3-II protein, densitometry relative to control (SKMEL-28 cells [2]): 1 | LC3-II protein, densitometry relative to control (KG1 cells): 1.5
